Experimental data published in the supplement of paper PMC4628005.

How the values were obtained:
Conditions in all cases: drug exposure time: 96 h
Methotrexate = compound: CN(Cc1cnc2nc(N)nc(N)c2n1)c1ccc(C(=O)N[C@@H](CCC(=O)O)C(=O)O)cc1 [Methotrexate]
Procedure: (§1)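 Breast cancer cell lines were grown in RPMI 1640 with 10% FBS on collagen I-coated 96-well plates and treated for 96 h (from 24 h after seeding) with 12 dilutions per drug, in triplicate. Growth was read by sulforhodamine B total-protein staining (absorbance 570 nm) relative to diluent control, and IC50 was calculated. The top dose was 1e-5 M for most drugs; Bortezomib went to 2e-5 M and Sirolimus and 17-AAG to 2e-6 M[…].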

Vorinostat = compound: O=C(CCCCCCC(=O)Nc1ccccc1)NO [Vorinostat]
Procedure: as §1

Dasatinib = compound: Cc1nc(Nc2ncc(C(=O)Nc3c(C)cccc3Cl)s2)cc(N2CCN(CCO)CC2)n1 [Dasatinib]
Procedure: as §1

Quisinostat = compound: Cn1cc(CNCC2CCN(c3ncc(C(=O)NO)cn3)CC2)c2ccccc21 [Quisinostat]
Procedure: as §1

Tamoxifen = compound: CC/C(=C(\c1ccccc1)c1ccc(OCCN(C)C)cc1)c1ccccc1 [Tamoxifen]
Procedure: as §1

Sorafenib = compound: CNC(=O)c1cc(Oc2ccc(NC(=O)Nc3ccc(Cl)c(C(F)(F)F)c3)cc2)ccn1 [Sorafenib]
Procedure: as §1

Panobinostat = compound: Cc1[nH]c2ccccc2c1CCNCc1ccc(/C=C/C(=O)NO)cc1 [Panobinostat]
Procedure: as §1

Brivanib = compound: Cc1cc2c(F)c(Oc3ncnn4cc(OC[C@@H](C)O)c(C)c34)ccc2[nH]1 [Brivanib]
Procedure: as §1

Decitabine = compound: Nc1ncn([C@H]2C[C@H](O)[C@@H](CO)O2)c(=O)n1 [Decitabine]
Procedure: as §1

Azacitidine = compound: Nc1ncn([C@@H]2O[C@H](CO)[C@@H](O)[C@H]2O)c(=O)n1 [Azacitidine]
Procedure: as §1

ARQ197 = compound: O=C1NC(=O)[C@@H](c2cn3c4c(cccc24)CCC3)[C@@H]1c1c[nH]c2ccccc12 [ARQ197]
Procedure: as §1

5-Fluorouracil = compound: O=c1[nH]cc(F)c(=O)[nH]1 [5-Fluorouracil]
Procedure: as §1

Doxorubicin = compound: COc1cccc2c1C(=O)c1c(O)c3c(c(O)c1C2=O)C[C@@](O)(C(=O)CO)C[C@@H]3O[C@H]1C[C@H](N)[C@H](O)[C@H](C)O1 [Doxorubicin]
Procedure: as §1

Nutlin-3 = compound: COc1ccc(C2=N[C@@H](c3ccc(Cl)cc3)[C@@H](c3ccc(Cl)cc3)N2C(=O)N2CCNC(=O)C2)c(OC(C)C)c1 [Nutlin-3]
Procedure: as §1

Lapatinib = compound: CS(=O)(=O)CCNCc1ccc(-c2ccc3ncnc(Nc4ccc(OCc5cccc(F)c5)c(Cl)c4)c3c2)o1 [Lapatinib]
Procedure: as §1

Serdemetan = compound: c1ccc2c(CCNc3ccc(Nc4ccncc4)cc3)c[nH]c2c1 [Serdemetan]
Procedure: as §1

Gefitinib = compound: COc1cc2ncnc(Nc3ccc(F)c(Cl)c3)c2cc1OCCCN1CCOCC1 [Gefitinib]
Procedure: as §1

Paclitaxel = compound: CC(=O)O[C@H]1C(=O)[C@@]2(C)[C@H]([C@H](OC(=O)c3ccccc3)[C@]3(O)C[C@H](OC(=O)[C@H](O)[C@@H](NC(=O)c4ccccc4)c4ccccc4)C(C)=C1C3(C)C)[C@]1(OC(C)=O)CO[C@@H]1C[C@@H]2O [Paclitaxel]
Procedure: as §1

Sunitinib = compound: CCN(CC)CCNC(=O)c1c(C)[nH]c(/C=C2\C(=O)Nc3ccc(F)cc32)c1C [Sunitinib]
Procedure: as §1

Cisplatin = compound: N.N.[Cl][Pt][Cl] [Cisplatin]
Procedure: as §1

Belinostat = compound: O=C(/C=C/c1cccc(S(=O)(=O)Nc2ccccc2)c1)NO [Belinostat]
Procedure: as §1

Erlotinib = compound: C#Cc1cccc(Nc2ncnc3cc(OCCOC)c(OCCOC)cc23)c1 [Erlotinib]
Procedure: as §1

Vandetanib = compound: COc1cc2/c(=N/c3ccc(Br)cc3F)nc[nH]c2cc1OCC1CCN(C)CC1 [Vandetanib]
Procedure: as §1

Tipifarnib = compound: Cn1cncc1[C@@](N)(c1ccc(Cl)cc1)c1ccc2c(c1)c(-c1cccc(Cl)c1)cc(=O)n2C [Tipifarnib]
Procedure: as §1

Docetaxel = compound: CC(=O)O[C@@]12CO[C@@H]1C[C@H](O)[C@@]1(C)C(=O)[C@H](O)C3=C(C)[C@@H](OC(=O)[C@H](O)[C@@H](NC(=O)OC(C)(C)C)c4ccccc4)C[C@@](O)([C@@H](OC(=O)c4ccccc4)[C@H]21)C3(C)C [Docetaxel]
Procedure: as §1

Mitoxantrone = compound: O=C1c2c(O)ccc(O)c2C(=O)c2c(NCCNCCO)ccc(NCCNCCO)c21 [Mitoxantrone]
Procedure: as §1

MI-219 = compound: CC(C)(C)C[C@H]1N[C@@H](C(=O)NCC[C@H](O)CO)[C@H](c2cccc(Cl)c2)[C@@]12C(=O)Nc1cc(Cl)c(F)cc12 [MI-219]
Procedure: as §1

Sirolimus = compound: CO[C@H]1C[C@@H]2CC[C@@H](C)[C@@](O)(O2)C(=O)C(=O)N2CCCC[C@H]2C(=O)O[C@H]([C@H](C)C[C@@H]2CC[C@@H](O)[C@H](OC)C2)CC(=O)[C@H](C)/C=C(\C)[C@@H](O)[C@@H](OC)C(=O)[C@H](C)C[C@H](C)/C=C/C=C/C=C/1C [Sirolimus]
Procedure: (§2)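 Same SRB 96 h IC50 screen on breast cancer cell lines (RPMI 1640 + 10% FBS, collagen I-coated 96-well plates, triplicates, 12 dilutions), for drugs with a different dose range: Bortezomib up to 2e-5 M; Sirolimus and 17-AAG up to 2e-6 M. Sirolimus values at the 2e-6 M top dose are censored.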

Bortezomib = compound: CC(C)C[C@H](NC(=O)[C@H](Cc1ccccc1)NC(=O)c1cnccn1)B(O)O [Bortezomib]
Procedure: as §2

17-AAG = compound: C=CCNC1=C2C[C@@H](C)C[C@H](OC)[C@H](O)[C@@H](C)/C=C(\C)[C@H](OC(N)=O)[C@@H](OC)/C=C\C=C(/C)C(=O)NC(=CC1=O)C2=O [17-AAG]
Procedure: as §2

Row | Test System | IC50 (SRB growth assay) (Methotrexate) [nM] | IC50 (SRB growth assay) (Vorinostat) [nM] | IC50 (SRB growth assay) (Dasatinib) [nM] | IC50 (SRB growth assay) (Quisinostat) [nM] | IC50 (SRB growth assay) (Tamoxifen) [nM] | IC50 (SRB growth assay) (Sorafenib) [nM] | IC50 (SRB growth assay) (Panobinostat) [nM] | IC50 (SRB growth assay) (Brivanib) [nM] | IC50 (SRB growth assay) (Decitabine) [nM] | IC50 (SRB growth assay) (Azacitidine) [nM] | IC50 (SRB growth assay) (ARQ197) [nM] | IC50 (SRB growth assay) (5-Fluorouracil) [nM] | IC50 (SRB growth assay) (Doxorubicin) [nM] | IC50 (SRB growth assay) (Nutlin-3) [nM] | IC50 (SRB growth assay) (Lapatinib) [nM] | IC50 (SRB growth assay) (Serdemetan) [nM] | IC50 (SRB growth assay) (Gefitinib) [nM] | IC50 (SRB growth assay) (Paclitaxel) [nM] | IC50 (SRB growth assay) (Sunitinib) [nM] | IC50 (SRB growth assay) (Cisplatin) [nM] | IC50 (SRB growth assay) (Belinostat) [nM] | IC50 (SRB growth assay) (Erlotinib) [nM] | IC50 (SRB growth assay) (Vandetanib) [nM] | IC50 (SRB growth assay) (Tipifarnib) [nM] | IC50 (SRB growth assay) (Docetaxel) [nM] | IC50 (SRB growth assay) (Mitoxantrone) [nM] | IC50 (SRB growth assay) (MI-219) [nM] | IC50 (SRB growth assay) (Sirolimus) [nM] | IC50 (SRB growth assay) (Bortezomib) [nM] | IC50 (SRB growth assay) (17-AAG) [nM]
1 | HCC 1395 | 1940 | 2390 | > 10000 | 13 | 7580 | 6310 | 26.6 | > 10000 | > 10000 | 2180 | 381 | 3750 | 55.5 | > 10000 | 3750 | 1520 | > 10000 | 1.76 | 8600 | > 10000 | 1070 | > 10000 | 7740 | 469 | 0.408 | 26.1 | > 10000 | 0.636 | 5.53 | 140
2 | HCC 1419 | 164 | 542 | 6030 | 3.8 | 4580 | 3450 | 6.31 | > 10000 | > 10000 | > 10000 | 1210 | > 10000 | 153 | > 10000 | 28.4 | 2450 | 2680 | 33.3 | 9930 | > 10000 | 174 | 2720 | 3540 | 550 | 15.2 | 126 | > 10000 | 0.195 | 4.28 | 14
3 | HCC 1500 | > 10000 | 987 | 959 | 9.34 | > 10000 | 6090 | 12.8 | > 10000 | 6210 | 2330 | 197 | 3930 | 40.3 | 2670 | 529 | 1960 | 679 | 3.44 | 8230 | > 10000 | 367 | 617 | 1280 | 1050 | 0.745 | 30.6 | 1070 | 0.274 | 5.55 | 905
4 | HCC 1569 | > 10000 | 1070 | 381 | 7.46 | 5680 | 4350 | 14.4 | > 10000 | > 10000 | 2620 | 619 | 8210 | 42.1 | > 10000 | 857 | 1800 | 7430 | 66.2 | 6490 | > 10000 | 521 | 3240 | 2070 | 938 | 7.63 | 31.4 | > 10000 | 0.355 | 5.08 | 90
5 | HCC 1806 | 2.99 | 632 | 178 | 8.95 | 5990 | 5250 | 15.8 | > 10000 | 1190 | > 10000 | 501 | 5080 | 20.8 | > 10000 | 589 | 826 | 513 | 1.97 | 4990 | > 10000 | 216 | 327 | 580 | 263 | 0.597 | 20.1 | > 10000 | > 2000 | 5.96 | 53.6
6 | SUM 1315 MO2 | 138 | 1190 | 53.7 | 29.6 | > 10000 | 5570 | 31.7 | 7200 | – | 3600 | – | > 10000 | 17.5 | > 10000 | 6720 | 1190 | > 10000 | 3.29 | 4280 | > 10000 | 703 | > 10000 | 2590 | – | 1.54 | 2.7 | > 10000 | 0.917 | 6.55 | 55.1
7 | UACC 893 | 164 | 487 | 6910 | 4.25 | 5500 | 4460 | 5.26 | > 10000 | > 10000 | > 10000 | – | 8200 | – | > 10000 | > 10000 | 2870 | 1710 | 1.95 | 2300 | – | 134 | 1490 | 4360 | – | 0.701 | 4.1 | > 10000 | 0.072 | 3.92 | 18.2
